Source: patent US20240285971A1, “Intratumoral Alpha-Emitter Radiation in Combination with Vasculature Inhibitors” (priority 2021, published 2024)

System: Glioblastoma Multiforme (GBM) xerographs, U87 cells
Experiment: DaRT with systemic BEV on U87 GBM xenografts, BEV started five days post seed insertion (FIG. 3)
Format: in vivo, athymic nude mice
Details: U87 intracutaneous flank tumors; single seed in tumor; BEV or IgG 5 mg/kg i.p., 3 doses per week for 3 weeks, from five days post seed insertion; compared with other groups
Protocol: In the experiment, the efficacy of DaRT with a systemic administration of BEV was tested on Glioblastoma Multiforme (GBM) xerographs. U87 cells were intracutaneously inoculated in a total of 5·10^6 cells per mouse (in a volume of 100 μl) to the flank of athymic nude mice. The tumors were allowed to grow to an average size of 5-6 mm (longest diameter) for 9 days, when either a single DaRT or inert (non-radioactive control) seed was inserted to the middle of each tumor. Five days post seed insertion, each mouse received an i.p (intraperitoneal) administration of either IgG (control antibody) or BEV. This administration included 3 doses per week (5 mg/kg each) for 3 consecutive weeks (a total of 9 doses). The mice were divided to 4 treatment groups as follows: • a. Inert+Control IgG (untreated control); • b. Inert+BEV (Bev as a monotherapy); • c. DaRT+Control IgG (DaRT as a monotherapy); • d. DaRT+BEV (The combined modality)
Tumor volumes were monitored 3 times per week, along with radioactivity measurement using a Geiger counter to confirm that the DaRT seeds are present in the tumor.

Substance: Bevacizumab
- tumor growth / tumor volume: moderate but significant attenuation in tumor growth
